Results: ChEMBL document CHEMBL4028893, “Discovery and Optimization of Potent, Cell-Active Pyrazole-Based Inhibitors of Lactate Dehydrogenase (LDH)” (J Med Chem, 2017)
pIC50: −log10 of the molar value. The source made the active and inactive calls. The rule behind the calls is not given here.

Experiments:
[1] = biological target: T1, L-lactate dehydrogenase A chain (Homo sapiens, UniProt P00338)
Description: Inhibition of human liver LDHA using sodium pyruvate as substrate after 5 mins in presence of NAPDH and EDTA by diaphorase/resazurin based fluorescence assay

L-lactate dehydrogenase [2] = biological target: T2, L-lactate dehydrogenase (Homo sapiens, UniProt V9HWB9); assay: Inhibition of LDH in human MIAPaCa2 cells assessed as reduction in lactate production preincubated for 2 hrs measured after 30 mins by high throughput fluorescence assay; type: cell-based
L-lactate dehydrogenase [3] = biological target: T2, L-lactate dehydrogenase; assay: Inhibition of LDH in human A673 cells assessed as reduction in lactate production preincubated for 2 hrs measured after 30 mins by high throughput fluorescence assay; type: cell-based
[4] = biological target: T1, L-lactate dehydrogenase A chain; remark: listed apart in the source
Description: Inhibition of human liver LDHA using sodium pyruvate as substrate after 5 mins in presence of NAPDH and in absence of EDTA by diaphorase/resazurin based fluorescence assay

[5] = biological target: Isocitrate dehydrogenase [NADP] cytoplasmic (Homo sapiens, UniProt O75874); assay: Inhibition of wild type IDH1 (unknown origin) using isocitrate as substrate preincubated for 30 mins followed by substrate addition in presence of NADP+ measured up to 5 mins by resorufin-based fluorescence assay
Chain of Isocitrate dehydrogenase [NADP] cytoplasmic (O75874 whole entry): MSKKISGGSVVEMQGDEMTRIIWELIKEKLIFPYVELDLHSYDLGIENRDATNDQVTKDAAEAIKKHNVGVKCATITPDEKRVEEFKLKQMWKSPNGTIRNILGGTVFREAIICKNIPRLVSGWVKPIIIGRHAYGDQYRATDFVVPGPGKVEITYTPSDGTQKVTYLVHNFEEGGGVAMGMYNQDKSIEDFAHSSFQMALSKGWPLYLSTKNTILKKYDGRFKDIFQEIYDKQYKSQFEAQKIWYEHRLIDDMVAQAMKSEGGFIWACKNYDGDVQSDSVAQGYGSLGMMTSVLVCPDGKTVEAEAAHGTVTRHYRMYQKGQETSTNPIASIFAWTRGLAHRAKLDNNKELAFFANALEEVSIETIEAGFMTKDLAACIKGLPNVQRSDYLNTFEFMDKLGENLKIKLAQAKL

[6] = Drug level in human MIAPaCa2 cells by LC-MS/MS analysis; type: ADME, cell-based; settings: mia paca-2
[7] = Drug level in human A673 cells by LC-MS/MS analysis; type: ADME, cell-based
[8] = Inhibition of pig heart MDH using malic acid as substrate preincubated for 10 mins followed by substrate addition measured up to 5 mins by resorufin-based fluorescence assay; set-up: species or system Sus scrofa

SMILES	pIC50 [1]	inhibition (L-lactate dehydrogenase [2])	inhibition (L-lactate dehydrogenase [3])	pIC50 [4]	pIC50 [5]	Drug uptake [6]	Drug uptake [7]	pIC50 [8]
NS(=O)(=O)N1CCN(Cc2cn(-c3nc(C(=O)O)cs3)nc2-c2ccccc2)CC1	4.76	–	–	–	–	–	–	–
O=C(O)c1csc(-n2nc(-c3ccncc3)cc2O)n1	< 4.24	inactive	inactive	6.17	–	–	–	–
N#Cc1c(Cc2ccc(S(N)(=O)=O)cc2)c(-c2ccccc2)nn1-c1nc(C(=O)O)cs1	6.94	–	–	–	–	–	–	–
NS(=O)(=O)c1ccc(Cc2c(-c3cccc(-c4ccccc4)c3)nn(-c3nc(C(=O)O)cs3)c2C(F)(F)F)cc1	–	–	–	–	4.47	Active	Active	4.31
O=C(O)c1csc(-n2nc(-c3ccc(F)cc3F)cc2O)n1	< 4.24	inactive	inactive	7.08	–	–	–	–
NS(=O)(=O)c1ccc(Nc2cn(-c3nc(C(=O)O)cs3)nc2-c2cccc(-c3ccccc3)c2)cc1	–	–	–	–	< 4.24	Active	Active	4.42
O=C(O)c1csc(-n2nc(-c3ccc(F)cc3)cc2O)n1	< 4.24	inactive	inactive	7.02	–	–	–	–
NS(=O)(=O)c1ccc(Cc2c(-c3cccc(-c4ccccc4F)c3)nn(-c3nc(C(=O)O)cs3)c2O)cc1	–	–	–	–	< 4.24	Active	Active	–
O=C(O)c1csc(-n2nc(-c3ccc(Cl)c(Cl)c3)cc2O)n1	< 4.24	inactive	inactive	6.97	–	–	–	–
NS(=O)(=O)c1ccc(Cc2c(-c3ccccc3)nn(-c3nc(C(=O)O)cs3)c2CC2CC2)cc1	–	–	–	–	4.32	Active	Active	< 4.24
O=C(O)c1csc(-n2nc(-c3cccc(Cl)c3)cc2O)n1	< 4.24	inactive	inactive	6.77	–	–	–	–
O=C(O)c1csc(-n2nc(-c3ccccc3)cc2C(F)F)n1	< 4.24	inactive	inactive	< 4.24	–	–	–	–
O=C(O)c1csc(-n2nc(-c3cccc(OC(F)(F)F)c3)cc2O)n1	< 4.24	inactive	inactive	6.52	–	–	–	–
NS(=O)(=O)c1cccc(Cc2c(-c3ccc(F)c(F)c3)nn(-c3nc(C(=O)O)cs3)c2O)c1	< 4.24	–	–	–	–	–	–	–
NS(=O)(=O)c1ccc(Oc2c(-c3ccccc3)nn(-c3nc(C(=O)O)cs3)c2C2CC2)cc1	7.19	–	–	–	–	–	–	–
Cc1c(Cc2ccc(S(N)(=O)=O)cc2)c(-c2ccccc2)nn1-c1nc(C(=O)O)cs1	7.38	–	–	–	–	–	–	–
NS(=O)(=O)c1ccc(Cc2c(-c3ccccc3)nn(-c3nc(C(=O)O)cs3)c2C2CC2)cc1	–	–	–	–	< 4.24	Active	Active	4.42
NS(=O)(=O)c1ccc(Oc2c(-c3cccc(-c4ccccc4)c3)nn(-c3nc(C(=O)O)cs3)c2C2CC2)cc1	–	–	–	–	–	Active	Active	< 4.24
O=C(O)c1csc(-n2nc(-c3ccc(F)c(F)c3)cc2O)n1	< 4.24	inactive	inactive	6.82	–	–	–	–

SMILES	pIC50 [1]	inhibition (L-lactate dehydrogenase [2])	inhibition (L-lactate dehydrogenase [3])	pIC50 [4]	pIC50 [5]	Drug uptake [6]	Drug uptake [7]	pIC50 [8]
O=C(O)c1csc(-n2nc(-c3ccc(F)cc3)cc2C(F)(F)F)n1	–	inactive	inactive	–	–	–	–	–
O=C(O)c1csc(-n2nc(-c3ccccc3F)cc2O)n1	< 4.24	inactive	inactive	6.87	–	–	–	–
NS(=O)(=O)c1ccc(Cc2c(-c3cccc(-c4ccccc4)c3)nn(-c3nc(-c4nnn[nH]4)cs3)c2O)cc1	< 4.24	–	–	–	–	–	–	–
O=C(O)c1csc(-n2nc(-c3cccc(Cl)c3)cc2C(F)(F)F)n1	< 4.24	inactive	inactive	< 4.24	–	–	–	–
O=C(O)c1csc(-n2nc(-c3ccccc3)cc2O)n1	< 4.24	inactive	inactive	6.84	–	–	–	–
O=C(O)c1csc(-n2nc(-c3cccc(F)c3)cc2O)n1	< 4.24	inactive	inactive	6.79	–	–	–	–
Cc1cc(-c2ccccc2)nn1-c1nc(C(=O)O)cs1	< 4.24	inactive	inactive	4.81	–	–	–	–
Nc1c(Cc2ccc(S(N)(=O)=O)cc2)c(-c2cccc(-c3ccccc3)c2)nn1-c1nc(C(=O)O)cs1	–	–	–	–	< 4.24	Active	Active	4.57
NS(=O)(=O)c1ccc(Nc2cn(-c3nc(C(=O)O)cs3)nc2-c2ccccc2)cc1	–	–	–	–	< 4.24	Active	Active	< 4.24
NS(=O)(=O)c1ccc(Cc2c(-c3ccccc3)nn(-c3nc(CO)cs3)c2C(F)(F)F)cc1	4.59	–	–	–	–	–	–	–
NC(=O)c1ccc(Cc2c(-c3cccc(-c4ccccc4)c3)nn(-c3nc(C(=O)O)cs3)c2O)cc1	< 4.24	–	–	–	–	–	–	–
NS(=O)(=O)c1ccc(Cc2c(-c3ccccc3)nn(-c3nc(C(=O)O)cs3)c2-c2cccnc2)cc1	–	–	–	–	< 4.24	Active	Active	< 4.24
NS(=O)(=O)c1ccc(Cc2c(-c3ccccc3)nn(-c3nc(C(=O)O)cs3)c2-c2ccccc2)cc1	6.86	–	–	–	–	–	–	–
O=C(O)c1csc(-n2nc(-c3ccc(Cl)cc3)cc2C(F)(F)F)n1	4.56	inactive	inactive	4.58	–	–	–	–
NC(=O)c1csc(-n2nc(-c3cccc(-c4ccccc4)c3)c(Cc3ccc(S(N)(=O)=O)cc3)c2O)n1	4.56	–	–	–	–	–	–	–
O=C(O)c1csc(-n2nc(C3CCCCC3)cc2O)n1	< 4.24	inactive	inactive	5.96	–	–	–	–
O=C(O)c1csc(-n2nc(-c3cccc(C(F)(F)F)c3)cc2O)n1	< 4.24	inactive	inactive	6.72	–	–	–	–
CCOC(=O)c1csc(-n2nc(-c3cccc(-c4ccccc4)c3)c(Cc3ccc(S(N)(=O)=O)cc3)c2C(F)(F)F)n1	< 4.24	–	–	–	–	–	–	–
CC(C)c1cc(-c2ccccc2)nn1-c1nc(C(=O)O)cs1	< 4.24	inactive	inactive	< 4.24	–	–	–	–

SMILES	pIC50 [1]	inhibition (L-lactate dehydrogenase [2])	inhibition (L-lactate dehydrogenase [3])	pIC50 [4]	pIC50 [5]	Drug uptake [6]	Drug uptake [7]	pIC50 [8]
O=C(O)c1csc(-n2nc(-c3cccc4ccccc34)cc2O)n1	< 4.24	inactive	inactive	6.67	–	–	–	–
NS(=O)(=O)c1ccc(Cc2cn(-c3nc(C(O)C(F)(F)F)cs3)nc2-c2ccccc2)cc1 (stereo not given)	< 4.24	–	–	–	–	–	–	–
Nc1cc(-c2ccccc2)nn1-c1nc(C(=O)O)cs1	< 4.24	inactive	inactive	4.57	–	–	–	–
NS(=O)(=O)c1ccc(Cc2c(-c3cccc(-c4ccccc4)c3)nn(-c3nc(C(=O)O)cs3)c2O)cc1	–	–	–	–	4.32	Active	Active	< 4.24
NS(=O)(=O)c1ccc(Oc2cn(-c3nc(C(=O)O)cs3)nc2-c2ccccc2)cc1	6.91	–	–	–	–	–	–	–
O=C(O)c1ccc(Cc2c(-c3cccc(-c4ccccc4)c3)nn(-c3nc(C(=O)O)cs3)c2O)cc1	4.47	–	–	–	–	–	–	–
O=C1N[C@](c2ccc(N3CCOCC3)cc2)(c2ccsc2)CC(O)=C1Sc1ccccc1Cl	–	–	–	–	< 4.24	Active	Active	< 4.24
NS(=O)(=O)c1ccc(Cc2cn(-c3nc(C(=O)O)cs3)nc2-c2cccc(-c3ccccc3)c2)cc1	–	–	–	–	4.32	Active	Active	4.31
O=C(O)c1csc(-n2nc(-c3ccc(F)c(F)c3)c(Cc3ccccc3)c2O)n1	< 4.24	–	–	–	–	–	–	–
O=C(O)c1csc(-n2nc(-c3ccccn3)cc2O)n1	< 4.24	inactive	inactive	5.99	–	–	–	–
NS(=O)(=O)c1ccc(C(=O)Nc2cn(-c3nc(C(=O)O)cs3)nc2-c2ccccc2)cc1	< 4.24	–	–	–	–	–	–	–
CC(=O)Nc1cc(-c2ccccc2)nn1-c1nc(C(=O)O)cs1	< 4.24	inactive	inactive	5.02	–	–	–	–
CNS(=O)(=O)c1ccc(Cc2c(-c3cccc(-c4ccccc4)c3)nn(-c3nc(C(=O)O)cs3)c2O)cc1	< 4.24	–	–	–	–	–	–	–
COc1ccc(-c2cc(O)n(-c3nc(C(=O)O)cs3)n2)cc1	< 4.24	inactive	inactive	6.64	–	–	–	–
O=C(O)c1csc(-n2nc(-c3cc(F)cc(F)c3)cc2O)n1	< 4.24	inactive	inactive	6.96	–	–	–	–
O=C(O)c1csc(-n2nc(-c3cccc(-c4ccccc4F)c3)cc2O)n1	< 4.24	inactive	inactive	7.02	–	–	–	–
O=C(O)c1csc(-n2nc(-c3cccc(-c4ccccc4)c3)cc2O)n1	< 4.24	inactive	inactive	6.58	–	–	–	–
O=C(O)c1csc(-n2nc(-c3ccccc3Cl)cc2C(F)(F)F)n1	< 4.24	inactive	inactive	< 4.24	–	–	–	–
NS(=O)(=O)c1ccc(NCc2cn(-c3nc(C(=O)O)cs3)nc2-c2ccccc2)cc1	< 4.24	–	–	–	–	–	–	–
